Values of other authors as cited in patent publication US20240016743A1, “A METHOD FOR PRODUCING ENTACAPONE TABLETS” (CHINA MEHECO KANGLI PHARMA CO., LTD, priority 2021, published 2024).

Conditions: clinical trials

N[C@@H](Cc1ccc(O)c(O)c1)C(=O)O [levodopa]
prolong the "On" time: 16%
shorten the "Off" time: 24%
